One data set has as its system acneiform eruptions. Briefly: Case reports: effect on acneiform eruptions in patients. In kind it is in vivo, human. The source says:
The effect of the micronutrient/mineral supplement of the present invention on acneiform eruptions is illustrated below.
1. patient six was a person with a long history of cystic acne vulgaris. They had no history of polycystic ovarian syndrome, ovarian cysts, oligomenorrhea or amenorrhea. Topical benzoyl peroxide and antibiotics provided no relief of their acne. They refused both oral contraceptive use or a trial of the diuretic spironolactone for possible acne benefits. They were contemplating a trial of accutane, when they decided to see an endocrinologist for a possible hormone etiology of their skin condition. Complete blood count, chemistries, thyroid function tests, AM cortisol were normal. Vitamin B12 and folate concentrations were normal; the total testosterone was 40 ng and not elevated; the androgenic steroids—DHEAS and androstenedione were normal. The 25 hydroxyvitamin D concentration was <5 ng/ml and intact parathyroid hormone (PTH) was elevated at 69 pg/ml (normal up to 65 pg). […] At four months, the 25 vitamin D concentration was 31 ng/ml and the total vitamin D3 was reduced to 2000 IU daily.
2. patient two was a person with chronic fatigue, inability to lose weight and severe chronic acne vulgaris unresponsive to topical treatments. They had been on Accutane multilple times but their skin improvement was transient with continual periodic acne eruptions. […] They were prescribed vitamin D3 at 4000 IU daily with calcium carbonate (elemental calcium) at 1500 mg; folate 2000 IU; vitamin B6 at 50 mcg and vitamin B12 at 500 mcg daily (B12 was prescribed at 500 mcg for 2 weeks only because of B12 deficiency) and then lowered to 50 mcg daily). A repeat 25 vitamin D level at 3 months was 30 ng and the total daily vitamin D was then lowered to 2000 IU daily; repeat B12 level was normal.
3. patient one was a person with a known history of oligomenorrhea/amenorrhea. Their menstrual cycles had been irregular with fewer than 8 cycles per year. Oral contraceptives prescribed 5 years ago normalized their menstrual cycles. […]

The conditions of data set [1]: oral ingestion; cited from earlier work.

As to `CC1=C(/C=C/C(C)=C/C=C/C(C)=C\C(=O)O)C(C)(C)CCC1` [Accutane], the effect on acne entry in the data set on acneiform eruptions (patient one, earlier and current treatment) was “without success”. For the same molecule, in the data set with acneiform eruptions (patient two, earlier treatment, multiple courses), the skin improvement result is recorded as “transient”.
`O=C(OOC(=O)c1ccccc1)c1ccccc1` [benzoyl peroxide]: in the data set with acneiform eruptions (patient six, earlier topical treatment), the relief of acne entry is “no relief”.
As to `C=C1CC[C@H](O)C/C1=C/C=C1\CCC[C@]2(C)[C@@H]([C@H](C)CCCC(C)C)CC[C@@H]12` [cholecalciferol], the “daily dose at which toxicity occurs” value in data set [1] is 40,000 IU.

(Values after US20050196469A1, “Micronutrient supplement combination for acne treatment and prevention” (priority 2004, published 2005).)
